Data on 23 molecules can be found in ChEMBL document CHEMBL5137040, “Identification of non-ATP-competitive α-carboline inhibitors of the anaplastic lymphoma kinase” (Eur J Med Chem, 2022).

Activity calls are given as the source filed them. The rule behind the calls is not given here.

In data set [1] the test system is BaF3. The experiment in a line: cells. To be noted: Mus musculus, BaF3, 72 h.
Data set [2] concerns BaF3. Briefly: cells. The following applies: Mus musculus, BaF3, 72 h. The source holds these as a separate data set.
Data set [3] has as its system BaF3. The experiment in a line: cells. The following applies: Mus musculus, BaF3, 72 h. This is another data set of the same source.
For data set [4], the target named is ALK tyrosine kinase receptor (Homo sapiens, UniProt Q9UM73). Type of data set: cell-based, Sf9.
Sequence of ALK tyrosine kinase receptor (Q9UM73 whole entry): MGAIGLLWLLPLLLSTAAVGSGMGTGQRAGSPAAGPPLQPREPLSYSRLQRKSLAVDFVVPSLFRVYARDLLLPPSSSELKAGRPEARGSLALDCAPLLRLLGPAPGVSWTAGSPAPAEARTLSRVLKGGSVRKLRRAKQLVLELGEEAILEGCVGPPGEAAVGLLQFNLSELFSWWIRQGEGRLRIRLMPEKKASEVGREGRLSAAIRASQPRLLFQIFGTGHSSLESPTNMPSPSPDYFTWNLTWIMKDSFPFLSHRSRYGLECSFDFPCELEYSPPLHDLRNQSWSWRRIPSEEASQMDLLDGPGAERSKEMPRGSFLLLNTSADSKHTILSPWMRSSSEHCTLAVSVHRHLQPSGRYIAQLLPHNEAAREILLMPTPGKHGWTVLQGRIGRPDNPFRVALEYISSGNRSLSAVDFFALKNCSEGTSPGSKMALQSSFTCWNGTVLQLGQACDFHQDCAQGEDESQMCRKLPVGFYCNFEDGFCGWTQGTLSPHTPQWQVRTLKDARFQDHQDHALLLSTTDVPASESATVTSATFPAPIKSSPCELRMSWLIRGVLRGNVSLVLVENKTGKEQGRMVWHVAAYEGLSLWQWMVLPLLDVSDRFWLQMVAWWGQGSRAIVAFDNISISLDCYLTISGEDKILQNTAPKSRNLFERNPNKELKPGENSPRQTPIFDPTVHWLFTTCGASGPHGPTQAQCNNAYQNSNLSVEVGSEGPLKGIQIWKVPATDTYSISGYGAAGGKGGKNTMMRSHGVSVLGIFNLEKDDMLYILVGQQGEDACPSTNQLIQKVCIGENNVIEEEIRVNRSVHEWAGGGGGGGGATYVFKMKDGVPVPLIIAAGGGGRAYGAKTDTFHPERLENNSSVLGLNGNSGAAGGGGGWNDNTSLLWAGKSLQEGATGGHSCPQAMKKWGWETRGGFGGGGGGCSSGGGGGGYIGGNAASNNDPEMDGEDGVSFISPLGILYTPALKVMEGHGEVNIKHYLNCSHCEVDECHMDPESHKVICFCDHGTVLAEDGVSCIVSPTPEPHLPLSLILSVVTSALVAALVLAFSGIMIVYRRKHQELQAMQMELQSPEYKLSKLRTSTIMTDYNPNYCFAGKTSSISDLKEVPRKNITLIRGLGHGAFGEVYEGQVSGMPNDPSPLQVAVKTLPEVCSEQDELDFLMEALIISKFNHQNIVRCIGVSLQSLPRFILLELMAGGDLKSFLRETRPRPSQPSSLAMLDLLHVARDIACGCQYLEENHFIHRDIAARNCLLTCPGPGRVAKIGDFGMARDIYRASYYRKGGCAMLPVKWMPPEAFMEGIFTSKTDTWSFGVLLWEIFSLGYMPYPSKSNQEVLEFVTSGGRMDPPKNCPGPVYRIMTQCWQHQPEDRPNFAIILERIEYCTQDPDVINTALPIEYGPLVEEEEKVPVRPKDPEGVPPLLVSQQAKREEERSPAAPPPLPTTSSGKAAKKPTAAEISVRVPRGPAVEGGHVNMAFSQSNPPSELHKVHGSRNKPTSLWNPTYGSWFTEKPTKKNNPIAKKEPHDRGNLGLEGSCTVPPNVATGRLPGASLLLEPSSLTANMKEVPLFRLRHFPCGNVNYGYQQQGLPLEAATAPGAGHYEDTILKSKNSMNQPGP
In data set [5] the test system is BaF3. Briefly: Cytotoxicity against mouse BaF3 cells harboring crizotinib resistant NPM/ALK C1156Y mutant assessed as inhibition of cell proliferation incubated for 72 hrs by MTS assay. To be noted: BaF3, 72 h. Type of data set: functional, cell-based. In general terms: Tetrazolium dyes change colour on reduction, which living cells bring about.
In data set [6] the test system is BaF3. The experiment in a line: Cytotoxicity against mouse BaF3 cells harboring crizotinib resistant NPM/ALK I1171N mutant assessed as inhibition of cell proliferation incubated for 72 hrs by MTS assay. Type of data set: functional, cell-based. To be noted: BaF3, 72 h.
Data set [7] has as its system BaF3. Briefly: Cytotoxicity against mouse BaF3 cells harboring crizotinib resistant NPM/ALK F1174L mutant assessed as inhibition of cell proliferation incubated for 72 hrs by MTS assay. Type of data set: functional, cell-based. To be noted: BaF3, 72 h.
Data set [8] deals with KARPAS-299. The experiment in a line: Antiproliferative activity against human KARPAS-299 cells harboring crizotinib resistant ALK L1196Q mutant assessed as inhibition of cell growth at 0.1 to 10 uM incubated for 72 hrs by MTS assay. Type of data set: functional, cell-based. To be noted: dose 0.1-10 µM.
For data set [9], the system named is SUPM2. The experiment in a line: Antiproliferative activity against human SUPM2 cells harboring crizotinib resistant ALK […] mutant assessed as inhibition of cell growth at 0.1 to 10 uM incubated for 72 hrs by MTS assay. Type of data set: functional, cell-based. To be noted: dose 0.1-10 µM.
Data set [10] in a line: Antiproliferative activity against NPM-ALK positive human SUPM2 cells assessed as inhibition of cell growth incubated for 72 hrs by MTS assay. Type of data set: functional, cell-based. To be noted: SUP-M2, 72 h.
The next data set concerns SU-DHL-1. Briefly: Antiproliferative activity against NPM-ALK positive human SU-DHL-1 cells assessed as inhibition of cell growth incubated for 72 hrs by MTS assay. To be noted: SU-DHL-1, 72 h. Type of data set: functional, cell-based.
Data set [11] deals with KARPAS-299. The experiment in a line: Antiproliferative activity against NPM-ALK positive human KARPAS-299 cells assessed as inhibition of cell growth incubated for 72 hrs by MTS assay. To be noted: KARPAS-299, 72 h. Type of data set: functional, cell-based.
The next data set deals with HL-60. The experiment in a line: Antiproliferative activity against NPM-ALK negative human HL-60 cells assessed as inhibition of cell growth incubated for 72 hrs by MTS assay. Type of data set: functional, cell-based. To be noted: HL-60, 72 h.
Data set [12] has as its target Insulin-like growth factor 1 receptor (Homo sapiens) (UniProt P08069). Briefly: Inhibition of recombinant IGF1R (unknown origin) at 10 uM by kinase selectivity assay relative to control.
Data set [13] concerns SUPM2. Type of data set: functional, cell-based. The following applies: Homo sapiens, dose 0.1-10 µM, time 72.0 hrs.
The subject of data set [14] is SUPM2. Briefly: Antiproliferative activity against human SUPM2 cells harboring crizotinib resistant ALK S1206C mutant assessed as inhibition of cell growth at 0.1 to 10 uM incubated for 72 hrs by MTS assay. Type of data set: functional, cell-based. To be noted: dose 0.1-10 µM.
The target of data set [15] is Fibroblast growth factor receptor 1 (Homo sapiens) (UniProt P11362). The experiment in a line: Inhibition of recombinant FGFR1 (unknown origin) at 10 uM by kinase selectivity assay relative to control.
Sequence of Fibroblast growth factor receptor 1 (Homo sapiens) (P11362 22-822 limits assumed): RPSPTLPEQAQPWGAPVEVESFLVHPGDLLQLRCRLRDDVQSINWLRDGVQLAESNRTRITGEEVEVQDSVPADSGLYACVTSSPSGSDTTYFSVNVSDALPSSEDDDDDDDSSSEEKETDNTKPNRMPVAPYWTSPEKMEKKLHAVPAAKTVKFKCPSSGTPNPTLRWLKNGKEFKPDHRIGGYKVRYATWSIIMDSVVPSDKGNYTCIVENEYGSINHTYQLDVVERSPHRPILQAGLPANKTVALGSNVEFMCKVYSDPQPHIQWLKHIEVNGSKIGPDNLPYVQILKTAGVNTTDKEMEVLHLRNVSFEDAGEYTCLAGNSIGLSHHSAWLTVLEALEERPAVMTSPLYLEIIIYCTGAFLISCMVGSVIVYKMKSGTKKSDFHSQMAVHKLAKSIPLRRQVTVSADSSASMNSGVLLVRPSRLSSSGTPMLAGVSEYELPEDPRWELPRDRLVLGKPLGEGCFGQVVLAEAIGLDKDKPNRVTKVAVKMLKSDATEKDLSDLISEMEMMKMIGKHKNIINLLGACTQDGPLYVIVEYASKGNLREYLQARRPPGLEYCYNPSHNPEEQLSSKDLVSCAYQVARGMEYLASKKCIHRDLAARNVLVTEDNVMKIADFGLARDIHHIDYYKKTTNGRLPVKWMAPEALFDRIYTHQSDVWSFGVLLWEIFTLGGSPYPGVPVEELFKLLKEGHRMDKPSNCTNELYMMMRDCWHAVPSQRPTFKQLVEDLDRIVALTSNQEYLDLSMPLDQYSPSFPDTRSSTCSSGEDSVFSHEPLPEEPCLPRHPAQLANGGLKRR
For data set [16], the target named is Vascular endothelial growth factor receptor 2 (Homo sapiens) (UniProt P35968). The experiment in a line: Inhibition of recombinant VEGFR2 (unknown origin) at 10 uM by kinase selectivity assay relative to control.
Sequence of Vascular endothelial growth factor receptor 2 (Homo sapiens) (P35968 whole entry): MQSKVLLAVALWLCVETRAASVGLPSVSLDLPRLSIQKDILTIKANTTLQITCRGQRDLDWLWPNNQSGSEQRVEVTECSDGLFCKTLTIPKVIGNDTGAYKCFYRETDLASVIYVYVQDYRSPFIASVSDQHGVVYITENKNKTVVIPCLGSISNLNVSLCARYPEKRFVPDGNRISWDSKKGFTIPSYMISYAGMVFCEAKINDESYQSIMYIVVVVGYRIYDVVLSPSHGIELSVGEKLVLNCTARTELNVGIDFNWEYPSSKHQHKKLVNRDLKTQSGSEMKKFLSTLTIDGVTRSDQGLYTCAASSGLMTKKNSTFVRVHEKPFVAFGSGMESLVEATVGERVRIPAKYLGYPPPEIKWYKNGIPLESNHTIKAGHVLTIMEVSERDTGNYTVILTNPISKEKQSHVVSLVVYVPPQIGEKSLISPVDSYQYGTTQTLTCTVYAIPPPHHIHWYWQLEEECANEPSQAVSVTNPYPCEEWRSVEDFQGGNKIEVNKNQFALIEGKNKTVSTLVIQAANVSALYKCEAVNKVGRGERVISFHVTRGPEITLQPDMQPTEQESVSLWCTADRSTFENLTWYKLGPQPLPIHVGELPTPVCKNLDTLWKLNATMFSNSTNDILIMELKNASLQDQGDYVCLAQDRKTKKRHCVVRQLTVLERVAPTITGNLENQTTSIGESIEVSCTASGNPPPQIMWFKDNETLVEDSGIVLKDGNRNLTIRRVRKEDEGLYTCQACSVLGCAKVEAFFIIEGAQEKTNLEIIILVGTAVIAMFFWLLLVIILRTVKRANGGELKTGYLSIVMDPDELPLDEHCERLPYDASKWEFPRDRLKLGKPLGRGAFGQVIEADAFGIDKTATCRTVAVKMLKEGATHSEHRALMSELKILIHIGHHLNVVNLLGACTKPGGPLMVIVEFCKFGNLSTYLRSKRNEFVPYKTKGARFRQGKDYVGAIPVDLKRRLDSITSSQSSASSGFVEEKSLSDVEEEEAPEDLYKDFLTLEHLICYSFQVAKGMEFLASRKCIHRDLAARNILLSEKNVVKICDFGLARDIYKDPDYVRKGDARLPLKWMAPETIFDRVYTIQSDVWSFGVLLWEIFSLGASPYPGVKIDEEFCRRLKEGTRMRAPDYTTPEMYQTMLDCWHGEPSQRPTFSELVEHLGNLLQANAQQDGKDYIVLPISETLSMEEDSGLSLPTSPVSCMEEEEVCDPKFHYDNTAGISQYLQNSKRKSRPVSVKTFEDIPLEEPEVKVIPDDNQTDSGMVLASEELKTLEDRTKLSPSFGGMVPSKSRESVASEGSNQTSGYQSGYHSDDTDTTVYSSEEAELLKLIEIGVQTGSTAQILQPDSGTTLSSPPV
The target of data set [17] is Epidermal growth factor receptor (Homo sapiens) (UniProt P00533). The experiment in a line: Inhibition of recombinant EGFR (unknown origin) at 10 uM by kinase selectivity assay relative to control.
Data set [18] is described as follows: Tmax in po dosed nude mouse. Type of data set: ADME, organism-based. The following applies: in vivo.
A short description of data set [19]: Half-life in po dosed nude mouse. Type of data set: ADME, organism-based. To be noted: in vivo.
Data set [20] relates to KARPAS-299. The experiment in a line: Antitumor activity against human KARPAS-299 cells xenografted in nude mouse assessed as tumor growth inhibition at 100 mg/kg, po administered twice daily for 24 days. Type of data set: functional. More on the design: scale not given: the % may be the effect or the level left. The following applies: time 24 day. Background: In xenograft studies the graft and the host belong to different species.

The test system of data set [21] is KARPAS-299. The experiment in a line: Antitumor activity against crizotinib-resistant human KARPAS-299 cells harboring L1196Q mutant xenografted in nude mouse assessed as tumor growth inhibition at 100 mg/kg, po administered twice daily for 24 days. Type of data set: functional, organism-based. To be noted: time 24.0 day.

Sequence of Insulin-like growth factor 1 receptor (Homo sapiens) (P08069 31-736 limits assumed): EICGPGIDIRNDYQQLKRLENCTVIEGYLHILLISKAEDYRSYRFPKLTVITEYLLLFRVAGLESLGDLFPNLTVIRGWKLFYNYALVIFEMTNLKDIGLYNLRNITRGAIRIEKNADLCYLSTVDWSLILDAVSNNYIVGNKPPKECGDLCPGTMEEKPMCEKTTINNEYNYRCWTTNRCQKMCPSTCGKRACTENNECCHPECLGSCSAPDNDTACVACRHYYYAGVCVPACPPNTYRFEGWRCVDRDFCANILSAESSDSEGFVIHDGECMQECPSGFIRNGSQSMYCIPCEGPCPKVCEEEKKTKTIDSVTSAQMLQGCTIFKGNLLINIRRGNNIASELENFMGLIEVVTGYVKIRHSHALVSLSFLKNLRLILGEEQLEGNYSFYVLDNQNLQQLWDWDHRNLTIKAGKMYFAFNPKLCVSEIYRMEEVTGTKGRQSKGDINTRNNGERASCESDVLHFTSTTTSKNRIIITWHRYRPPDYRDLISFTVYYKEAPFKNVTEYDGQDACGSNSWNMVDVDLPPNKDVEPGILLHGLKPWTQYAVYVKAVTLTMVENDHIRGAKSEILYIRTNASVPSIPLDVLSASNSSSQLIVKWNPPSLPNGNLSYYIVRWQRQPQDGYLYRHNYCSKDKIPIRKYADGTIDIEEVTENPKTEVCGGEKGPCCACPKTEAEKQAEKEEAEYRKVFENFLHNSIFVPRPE
Sequence of Insulin-like growth factor 1 receptor (Homo sapiens) (P08069 741-1367 limits assumed): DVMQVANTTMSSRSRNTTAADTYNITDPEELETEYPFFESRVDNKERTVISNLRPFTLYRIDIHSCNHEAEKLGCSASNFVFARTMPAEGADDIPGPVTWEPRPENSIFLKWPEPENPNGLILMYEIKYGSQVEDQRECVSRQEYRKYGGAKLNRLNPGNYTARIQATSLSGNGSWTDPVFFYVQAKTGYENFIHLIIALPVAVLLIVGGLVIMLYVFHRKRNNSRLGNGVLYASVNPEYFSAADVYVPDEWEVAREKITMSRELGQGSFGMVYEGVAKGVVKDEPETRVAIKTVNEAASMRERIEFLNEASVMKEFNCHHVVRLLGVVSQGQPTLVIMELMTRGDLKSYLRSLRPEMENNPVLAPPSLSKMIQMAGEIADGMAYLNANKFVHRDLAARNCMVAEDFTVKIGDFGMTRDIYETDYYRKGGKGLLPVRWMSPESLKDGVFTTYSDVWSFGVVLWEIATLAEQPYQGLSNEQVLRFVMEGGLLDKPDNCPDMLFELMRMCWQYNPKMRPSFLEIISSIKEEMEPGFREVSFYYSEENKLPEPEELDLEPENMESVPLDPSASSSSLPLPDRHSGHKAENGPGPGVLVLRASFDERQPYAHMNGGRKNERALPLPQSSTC

For `CN1CCN(c2ccc(-c3ccc4[nH]c5nccc(-c6ccc(C(=O)c7ccccc7)cc6)c5c4c3)cc2)CC1`, the IC50 (in general, the midpoint of a concentration-inhibition curve) in the data set with BaF3 [1] was found to be 18000 nM; with BaF3 [2] it was 6100 nM; with BaF3 [3] it was 1700 nM.

As for `CN1CCN(c2ccc(-c3ccc4[nH]c5nccc(/C=C/c6ccccc6)c5c4c3)cc2)CC1`, the IC50 with BaF3 [1] was determined as 1100 nM; in the data set with BaF3 [2], 1600 nM; with BaF3 [3], 1500 nM.

Turning to `CN1CCN(c2ccc(-c3ccc4[nH]c5nccc(-c6ccc(-c7ccccc7)cc6)c5c4c3)cc2)CC1`, the IC50 was more than 25000 nM with BaF3 [1], 4300 nM in the data set with BaF3 [2] and 2800 nM with BaF3 [3].

As for `C[N+]1(C)CCN(c2ccc(-c3ccc4[nH]c5nccc(C#Cc6ccccc6C(F)(F)F)c5c4c3)cc2)CC1`, the IC50 in the data set with BaF3 [1] is 13000 nM; in the data set on BaF3 [2], 2600 nM; with BaF3 [3], 2100 nM.

For the molecule `CN1CCN(c2ccc(-c3ccc4[nH]c5nccc(/C=C/c6ccccc6C(F)(F)F)c5c4c3)cc2)CC1`, the IC50 came out at 1700 nM in the data set on BaF3 [1], 1500 nM in the data set with BaF3 [2] and 900 nM with BaF3 [3].

On to `c1ccc(Cc2ccc(-c3ccnc4[nH]c5ccc(-c6ccc(N7CCN(Cc8cccnc8)CC7)cc6)cc5c34)cc2)cc1`, for which the IC50 in data set [4] is more than 10000 nM.

For `COc1cc(-c2ccnc3[nH]c4ccc(-c5ccc(N6CCN(C)CC6)cc5)cc4c23)c(OC)cc1Cc1ccccc1`, the results for the IC50 in the data set on BaF3 [1], in the data set on BaF3 [2] and in the data set on BaF3 [3] were 800 nM, 800 nM and 500 nM, respectively.

Take `CN1CCN(c2ccc(-c3ccc4[nH]c5nccc(C#Cc6ccccc6)c5c4c3)cc2)CC1`: the values for the IC50 in the data set on BaF3 [1], with BaF3 [2] and with BaF3 [3] were 4400 nM, 3700 nM and 2700 nM, respectively.

Consider `CN1CCN(c2ccc(-c3ccc4[nH]c5nccc(/C=C/c6ccccc6F)c5c4c3)cc2)CC1`, for which the IC50 in the data set with BaF3 [1] worked out at 5100 nM; with BaF3 [2] it was 1900 nM; in the data set with BaF3 [3] it was 1600 nM.

In turn, `C#Cc1ccnc2[nH]c3ccc(-c4ccc(N5CCN(C)CC5)cc4)cc3c12` displayed an IC50 in data set [4] of more than 10000 nM.

As for `CN1CCN(c2ccc(-c3ccc4[nH]c5nccc(-c6cccc(-c7ccccc7)c6)c5c4c3)cc2)CC1`, the IC50 in the data set on BaF3 [1] was 2700 nM; with BaF3 [2], 1800 nM; with BaF3 [3] it was 1900 nM.

As to `O=[N+]([O-])c1ccccc1Nc1ccnc2[nH]c3ccccc3c12`, the IC50 in data set [4] is more than 10000 nM.

On to `CN(C)/C=C/C(=O)c1ccc2[nH]c3nccc(-c4ccc(Cc5ccccc5)cc4)c3c2c1`, for which, in data set [4], the 50% inhibitory concentration (IC50) was more than 10000 nM.

Turning to `Cc1cc(OCc2ccc(-c3ccnc4[nH]c5ccc(-c6ccc(N7CCN(C)CC7)cc6)cc5c34)cc2)ccc1Cl`, the IC50 in the data set with BaF3 [1], in the data set with BaF3 [2] and in the data set with BaF3 [3] was more than 25000 nM throughout.

For `CN1CCN(c2ccc(-c3ccc4[nH]c5nccc(-c6ccc(Cc7ccccc7)cc6)c5c4c3)cc2)CC1`, the IC50 stood at 1300 nM in the data set with BaF3 [5]; 1900 nM in the data set with BaF3 [6]; 2400 nM in the data set on BaF3 [7]; 1100 nM in data set [10]; 800 nM in the data set on SU-DHL-1; 700 nM in the data set with KARPAS-299 [11]. Besides, the IC50 worked out at 17000 nM in the data set on HL-60 and 8700 nM in the data set with BaF3 [1]. In addition, the outcome in the data set on KARPAS-299 [8], in the data set with SUPM2 [9], with SUPM2 [13], in the data set with SUPM2 [14] and in the data set on KARPAS-299 [21] was Active. The inhibition in data set [12], in [15], in data set [16] and in data set [17] was more than 90% each time. Besides, the Tmax (as a rule, the time from dosing to the highest level) in [18] came out at 4 h. In addition, the half-life (in general, how long it takes for the measured level to halve) in data set [19] is less than 24 h. Also, the Activity with KARPAS-299 [20] is reported as 80%.

Consider `COC(=O)c1cc(-c2ccnc3[nH]c4ccc(-c5ccc(N6CCN(C)CC6)cc5)cc4c23)ccc1Cc1ccccc1`, for which the IC50 in data set [4] was more than 10000 nM.

Molecule `CCN(CC)CCSCC(=O)c1ccc2[nH]c3nccc(Cl)c3c2c1` registered an IC50 in data set [4] of more than 10000 nM.

Molecule `COc1ccc(-c2ccnc3[nH]c4ccccc4c23)cc1` gave an IC50 in data set [4] of more than 10000 nM.

As to `COc1ccc(/C=C/c2ccnc3[nH]c4ccc(-c5ccc(N6CCN(C)CC6)cc5)cc4c23)cc1`, the IC50 in the data set with BaF3 [1] was found to be 4100 nM; in the data set on BaF3 [2], 600 nM; in the data set with BaF3 [3], 1600 nM.

As for `CN1CCN(c2ccc(-c3ccc4[nH]c5nccc(-c6ccc(-c7cccc8ccccc78)cc6)c5c4c3)cc2)CC1`, the IC50 in the data set on BaF3 [1] is 1000 nM; in the data set with BaF3 [2], 400 nM; in the data set with BaF3 [3] it was 500 nM.

As to `CN1CCN(c2ccc(-c3ccc4[nH]c5nccc(/C=C/c6cccc(F)c6)c5c4c3)cc2)CC1`, the figures for the IC50 in the data set with BaF3 [1], with BaF3 [2] and with BaF3 [3] were 9500 nM, 2700 nM and 1800 nM, respectively.

In the case of `COc1cc(C(O)c2ccccc2)c(O)cc1-c1ccnc2[nH]c3ccc(-c4ccc(N5CCN(C)CC5)cc4)cc3c12` (stereo not given), the IC50 in data set [4] is more than 10000 nM.

For the molecule `CN1CCN(c2ccc(-c3ccc4[nH]c5nccc(N6CCC(Cc7ccccc7)CC6)c5c4c3)cc2)CC1`, the IC50 in the data set on BaF3 [1] is 3300 nM; with BaF3 [2], 1200 nM; in the data set with BaF3 [3], 600 nM.
